Measurements from ChEMBL document CHEMBL5154765, “Design, synthesis, and biological evaluation of novel spiro[pyrrolidine-2,3'-quinolin]-2'-one derivatives as potential chitin synthase inhibitors and antifungal agents” (Eur J Med Chem, 2022).
In brackets after ≈: the same amount, converted by molar mass.

Experiments:
Aspergillus fumigatus [1] = assay: Synergistic antifungal activity against Aspergillus fumigatus GIMCC 3.19 assessed as fractional inhibitory concentration index incubated for 72 hrs in presence of polyoxin B by checker board assay; format: functional
Candida albicans [2] = assay: Antifungal activity against Candida albicans ATCC 76615 incubated for 72 hrs in presence of polyoxin B by checker board assay; format: functional
Aspergillus flavus [3] = assay: Antifungal activity against Aspergillus flavus ATCC 16870 incubated for 72 hrs in presence of polyoxin B by checker board assay; format: functional
Cryptococcus neoformans [4] = assay: Antifungal activity against Cryptococcus neoformans ATCC 32719 assessed as fluconazole MIC incubated for 72 hrs by checker board assay; format: functional
Cryptococcus neoformans [5] = assay: Synergistic antifungal activity against Cryptococcus neoformans ATCC 32719 assessed as fractional inhibitory concentration index incubated for 72 hrs in presence of polyoxin B by checker board assay; format: functional
Candida albicans [6] = assay: Antifungal activity against fluconazole resistant Candida albicans ATCC 76615 assessed as reduction in fungal growth incubated for 24 hrs by two fold broth dilution method; format: functional
Aspergillus fumigatus [7] = assay: Antifungal activity against fluconazole resistant Aspergillus fumigatus GIMCC 3.19 assessed as reduction in fungal growth incubated for 24 hrs by two fold broth dilution method; format: functional
Aspergillus fumigatus [8] = assay: Antifungal activity against Aspergillus fumigatus GIMCC 3.19 incubated for 72 hrs in presence of fluconazole by checker board assay; format: functional
Aspergillus flavus [9] = assay: Antifungal activity against Aspergillus flavus ATCC 16870 assessed as reduction in fungal growth in presence of sorbitol incubated for 24 hrs by two fold broth dilution method; format: functional
Aspergillus fumigatus [10] = assay: Antifungal activity against Aspergillus fumigatus GIMCC 3.19 assessed as fluconazole MIC incubated for 72 hrs by checker board assay; format: functional
Aspergillus flavus [11] = assay: Antifungal activity against Aspergillus flavus ATCC 16870 assessed as fluconazole MIC incubated for 72 hrs by checker board assay; format: functional
Cryptococcus neoformans [12] = assay: Synergistic antifungal activity against Cryptococcus neoformans ATCC 32719 assessed as fractional inhibitory concentration index incubated for 72 hrs in presence of fluconazole by checker board assay; format: functional
Aspergillus fumigatus [13] = assay: Synergistic antifungal activity against Aspergillus fumigatus GIMCC 3.19 assessed as fractional inhibitory concentration index incubated for 72 hrs in presence of fluconazole by checker board assay; format: functional
Candida albicans [14] = assay: Antifungal activity against Candida albicans ATCC 76615 assessed as polyoxin B MIC incubated for 72 hrs by checker board assay; format: functional
Cryptococcus neoformans [15] = assay: Antifungal activity against Cryptococcus neoformans ATCC 32719 assessed as reduction in fungal growth in presence of sorbitol incubated for 24 hrs by two fold broth dilution method; format: functional
Cryptococcus neoformans [16] = assay: Antifungal activity against fluconazole resistant Cryptococcus neoformans ATCC 32719 assessed as reduction in fungal growth incubated for 24 hrs by two fold broth dilution method; format: functional
Cryptococcus neoformans [17] = assay: Antifungal activity against Cryptococcus neoformans ATCC 32719 assessed as reduction in fungal growth incubated for 24 hrs by two fold broth dilution method; format: functional
Candida tropicalis = assay: Inhibition of Candida tropicalis ATCC750 chitin synthase at 300 ug/ml using UDP-GlcNAc as substrate incubated for 1 hr by microplate reader analysis relative to control; details: dose 300.0 µg/ml
Candida albicans [18] = assay: Synergistic antifungal activity against Candida albicans ATCC 76615 assessed as fractional inhibitory concentration index incubated for 72 hrs in presence of polyoxin B by checker board assay; format: functional
Aspergillus fumigatus [19] = assay: Antifungal activity against Aspergillus fumigatus GIMCC 3.19 assessed as polyoxin B MIC incubated for 72 hrs by checker board assay; format: functional
Cryptococcus neoformans [20] = assay: Antifungal activity against Cryptococcus neoformans ATCC 32719 assessed as polyoxin B MIC incubated for 72 hrs by checker board assay; format: functional
Aspergillus flavus [21] = assay: Synergistic antifungal activity against Aspergillus flavus ATCC 16870 assessed as fractional inhibitory concentration index incubated for 72 hrs in presence of polyoxin B by checker board assay; format: functional
Cryptococcus neoformans [22] = assay: Antifungal activity against Cryptococcus neoformans ATCC 32719 incubated for 72 hrs in presence of fluconazole by checker board assay; format: functional
Cryptococcus neoformans [23] = assay: Antifungal activity against Cryptococcus neoformans ATCC 32719 incubated for 72 hrs in presence of polyoxin B by checker board assay; format: functional
Candida albicans [24] = assay: Antifungal activity against micafungin resistant Candida albicans ATCC 76615 assessed as reduction in fungal growth incubated for 24 hrs by two fold broth dilution method; format: functional
Candida albicans [25] = assay: Antifungal activity against Candida albicans ATCC 76615 assessed as reduction in fungal growth incubated for 24 hrs by two fold broth dilution method; format: functional
Aspergillus flavus [26] = assay: Synergistic antifungal activity against Aspergillus flavus ATCC 16870 assessed as fractional inhibitory concentration index incubated for 72 hrs in presence of fluconazole by checker board assay; format: functional
Candida albicans [27] = assay: Antifungal activity against Candida albicans ATCC 76615 assessed as fluconazole MIC incubated for 72 hrs by checker board assay; format: functional
Aspergillus fumigatus [28] = assay: Antifungal activity against Aspergillus fumigatus GIMCC 3.19 assessed as reduction in fungal growth in presence of sorbitol incubated for 24 hrs by two fold broth dilution method; format: functional
Aspergillus flavus [29] = assay: Antifungal activity against fluconazole resistant Aspergillus flavus ATCC 16870 assessed as reduction in fungal growth incubated for 24 hrs by two fold broth dilution method; format: functional
[30] = Inhibition of Candida tropicalis ATCC750 chitin synthase using UDP-GlcNAc as substrate incubated for 1 hr by microplate reader analysis
Candida albicans [31] = assay: Antifungal activity against Candida albicans ATCC 76615 assessed as reduction in fungal growth in presence of sorbitol incubated for 24 hrs by two fold broth dilution method; format: functional
Aspergillus fumigatus [32] = assay: Antifungal activity against Aspergillus fumigatus GIMCC 3.19 assessed as reduction in fungal growth incubated for 24 hrs by two fold broth dilution method; format: functional
Aspergillus flavus [33] = assay: Antifungal activity against Aspergillus flavus ATCC 16870 assessed as reduction in fungal growth incubated for 24 hrs by two fold broth dilution method; format: functional
Aspergillus flavus [34] = assay: Antifungal activity against Aspergillus flavus ATCC 16870 incubated for 72 hrs in presence of fluconazole by checker board assay; format: functional
Aspergillus fumigatus [35] = assay: Antifungal activity against Aspergillus fumigatus GIMCC 3.19 incubated for 72 hrs in presence of polyoxin B by checker board assay; format: functional
Aspergillus flavus [36] = assay: Antifungal activity against Aspergillus flavus ATCC 16870 assessed as polyoxin B MIC incubated for 72 hrs by checker board assay; format: functional
Candida albicans [37] = assay: Synergistic antifungal activity against Candida albicans ATCC 76615 assessed as fractional inhibitory concentration index incubated for 72 hrs in presence of fluconazole by checker board assay; format: functional
Candida albicans [38] = assay: Antifungal activity against Candida albicans ATCC 76615 incubated for 72 hrs in presence of fluconazole by checker board assay; format: functional

| SMILES | fractional inhibitory concentration index (FICI) (Aspergillus fumigatus [1]) | MIC (Candida albicans [2]) [µg/mL] | MIC (Aspergillus flavus [3]) [µg/mL] | MIC (Cryptococcus neoformans [4]) [µg/mL] | fractional inhibitory concentration index (FICI) (Cryptococcus neoformans [5]) | MIC (Candida albicans [6]) [µg/mL] | MIC (Aspergillus fumigatus [7]) [µg/mL] | MIC (Aspergillus fumigatus [8]) [µg/mL] | MIC (Aspergillus flavus [9]) [µg/mL] | MIC (Aspergillus fumigatus [10]) [µg/mL] | MIC (Aspergillus flavus [11]) [µg/mL] | fractional inhibitory concentration index (FICI) (Cryptococcus neoformans [12]) | fractional inhibitory concentration index (FICI) (Aspergillus fumigatus [13]) | MIC (Candida albicans [14]) [µg/mL] | MIC (Cryptococcus neoformans [15]) [µg/mL] | MIC (Cryptococcus neoformans [16]) [µg/mL] | MIC (Cryptococcus neoformans [17]) [µg/mL] | inhibition (Candida tropicalis) [%] | fractional inhibitory concentration index (FICI) (Candida albicans [18]) | MIC (Aspergillus fumigatus [19]) [µg/mL] | other results |
| --- | --- | --- | --- | --- | --- | --- | --- | --- | --- | --- | --- | --- | --- | --- | --- | --- | --- | --- | --- | --- | --- |
| O=C(/C=C/C(=O)N1CCCC12Cc1ccccc1NC2=O)Nc1ccccc1[N+](=O)[O-] (stereo not drawn) | 1.5 | 2 | 4 | 4 | 0.75 | 64 (≈ 152 µM) | 64 (≈ 152 µM) | 1 | 64 | 2 | 2 | 1 | 0.75 | 4 | 64 | 64 (≈ 152 µM) | 16 (≈ 38.1 µM) | 80.9 | 1 | 8 | MIC (Cryptococcus neoformans [20]): 8 µg/mL; fractional inhibitory concentration index (FICI) (Aspergillus flavus [21]): 1.5; MIC (Cryptococcus neoformans [22]): 8 µg/mL; MIC (Cryptococcus neoformans [23]): 4 µg/mL; MIC (Candida albicans [24]): 64 µg/mL (≈ 152 µM); MIC (Candida albicans [25]): 4 µg/mL (≈ 9.51 µM); fractional inhibitory concentration index (FICI) (Aspergillus flavus [26]): 0.75; MIC (Candida albicans [27]): 2 µg/mL; MIC (Aspergillus fumigatus [28]): 32 µg/mL; MIC (Aspergillus flavus [29]): 64 µg/mL (≈ 152 µM); IC50 [30]: 110 µM; MIC (Candida albicans [31]): 32 µg/mL; MIC (Aspergillus fumigatus [32]): 4 µg/mL (≈ 9.51 µM); MIC (Aspergillus flavus [33]): 4 µg/mL (≈ 9.51 µM); MIC (Aspergillus flavus [34]): 2 µg/mL; MIC (Aspergillus fumigatus [35]): 2 µg/mL; MIC (Aspergillus flavus [36]): 4 µg/mL; fractional inhibitory concentration index (FICI) (Candida albicans [37]): 1; MIC (Candida albicans [38]): 2 µg/mL |
| O=C(/C=C/C(=O)N1CCCC12Cc1ccccc1NC2=O)Nc1ccc(Cl)c(F)c1 (stereo not drawn) | 0.75 | 2 | 4 | 8 | 0.75 | 32 (≈ 74.8 µM) | 128 (≈ 299 µM) | 1 | 64 | 1 | 1 | 1.5 | 0.5 | 8 | 64 | 256 (≈ 598 µM) | 8 (≈ 18.7 µM) | 82.6 | 2 | 2 | MIC (Cryptococcus neoformans [20]): 4 µg/mL; fractional inhibitory concentration index (FICI) (Aspergillus flavus [21]): 2; MIC (Cryptococcus neoformans [22]): 4 µg/mL; MIC (Cryptococcus neoformans [23]): 4 µg/mL; MIC (Candida albicans [24]): 32 µg/mL (≈ 74.8 µM); MIC (Candida albicans [25]): 2 µg/mL (≈ 4.67 µM); fractional inhibitory concentration index (FICI) (Aspergillus flavus [26]): 0.63; MIC (Candida albicans [27]): 1 µg/mL; MIC (Aspergillus fumigatus [28]): 32 µg/mL; MIC (Aspergillus flavus [29]): 32 µg/mL (≈ 74.8 µM); IC50 [30]: 110 µM; MIC (Candida albicans [31]): 16 µg/mL; MIC (Aspergillus fumigatus [32]): 4 µg/mL (≈ 9.35 µM); MIC (Aspergillus flavus [33]): 4 µg/mL (≈ 9.35 µM); MIC (Aspergillus flavus [34]): 2 µg/mL; MIC (Aspergillus fumigatus [35]): 2 µg/mL; MIC (Aspergillus flavus [36]): 8 µg/mL; fractional inhibitory concentration index (FICI) (Candida albicans [37]): 0.5; MIC (Candida albicans [38]): 0.5 µg/mL |
